Measured values from US20120165319A1, “INHIBITORS OF INTERLEUKIN-1 BETA CONVERTING ENZYME” (VERTEX PHARMACEUTICALS INCORPORATED, priority 1995, published 2012).
pIC50: −log10 of the molar value.

What was measured:
[1] = system: IL-1β, human peripheral blood mononuclear cells (PBMC); assay: PBMC cell assay: IL-1β assay with human PBMC or enriched adherent mononuclear cells, LPS-stimulated; format: cell-based
Summary of the method: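 Mature IL-1β is measured by ELISA in supernatants after 16–18 hr at 37 °C, 5% CO2, with LPS (5 ng/ml final) and test compound (0.1% DMSO final). Cells are human PBMC (6×10^6 cells/ml) or plate-adherent mononuclear cells (2.5−3.0×10^5 per well), and the 5–6 compound concentrations span the ICE Ki.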

[2] = In vivo rat clearance assay; conditions: for clearance: plasma, iv
Summary of the method: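 Rats cannulated a day beforehand received 10–20 mg/kg by intravenous jugular dosing in propylene glycol/saline with 100 mM sodium bicarbonate. Carotid blood was sampled from 0 to 90 min, and plasma was extracted with acetonitrile/0.1% TFA for HPLC quantification. Clearance from non-linear regression pharmacokinetic analysis.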

[3] = Homo sapiens, PBMC, * = values obtained upon reassay
[4] = * = values obtained upon reassay

clearance ([2]; 10-20 mg/kg) [mL/min/kg] | Structure (SMILES) | pIC50 [1, 3] | also measured
 | O=C[C@H](CC(=O)O)NC(=O)CN1C(=O)[C@@H](NC(=O)c2ccccc2)CN(C(=O)CO)c2ccccc21 [Compound 668, (3S)-3-[(3S)-2-Oxo-3-benzoylamino-5-(2-hydroxy)acetyl-2,3,4,5-tetrahydro-1H-1,5-benzodiazepine-1-acetylamino]-4-oxo-butyric acid] |  | pIC50 ([1]; Homo sapiens, PBMC, Table 17): 5.28; clearance ([2]; Table 17): 29 mL/min/kg
 | COc1c(Cl)cc(C(=O)N[C@H]2CCC(=O)N3CCC[C@@H](C(=O)N[C@H](C=O)CC(=O)O)N3C2=O)cc1Cl [Compound 214m] |  | pIC50 ([1]; Homo sapiens, PBMC, Table 17): 6.28; clearance ([2]; Table 17): 33.4 mL/min/kg
24 | COCC(=O)N1C[C@H](NC(=O)c2ccccc2)C(=O)N(CC(=O)N[C@H](C=O)CC(=O)O)c2ccccc21 [Compound 605e, (3S)-3-[(3S)-2-Oxo-3-benzoylamino-5-methoxyacetyl-2,3,4,5-tetrahydro-1H-1,5-benzodiazepin-1-acetylamino]-4-oxo-butyric acid] | 5.65 | 
 | O=C[C@H](CC(=O)O)NC(=O)[C@@H]1CCCN2C(=O)CC[C@H](NC(=O)c3cc(Cl)c(O)c(Cl)c3)C(=O)N12 [Compound 214k, [3S(1S,9S)]3-(9-(3,5-Dichloro-4-hydroxybenzoyl)amino-6,10-dioxo-1,2,3,4,7,8,9,10-octahydro-6H-pyridazino[1,2-a][1,2]diazepine-1-carboxamido)-4-oxobutanoic acid] |  | pIC50 ([1]; Homo sapiens, PBMC, Table 17): 6.30; clearance ([2]; Table 17): 22 mL/min/kg
 | O=C1C[C@H](NC(=O)[C@@H]2CCCN3C(=O)CC[C@H](NC(=O)c4cccc5ccccc45)C(=O)N23)C(OCc2ccccc2)O1 (stereo partly drawn) [Compound 213v, [1S,9S(2RS,3S)]N-(2-Benzyloxy-5-oxotetrahydrofuran-3-yl)-6,10-dioxo-9-(naphth-1-oylamino)-1,2,3,4,7,8,9,10-octahydro-6H-pyridazino[1,2-a][1,2]diazepine-1-carboxamide] |  | pIC50 ([1]; Homo sapiens, PBMC, Table 17): 5.96; clearance ([2]; Table 17): 23 mL/min/kg
60 | O=C[C@H](CC(=O)O)NC(=O)[C@@H]1CCCN2C(=O)CCN(NS(=O)(=O)c3ccccc3)C(=O)N12 [Compound 1027, [3S(4S)]3-(6,10-Dioxo-1,2,3,4,7,8,9,10-octahydro-7-phenylsulphonylamino-6H-pyridazino[1,2-a][1,2,4]triazepine-4-carboxamido)-4-oxobutanoic acid] | < 4.70 | 
54 | O=C[C@H](CC(=O)O)NC(=O)[C@@H]1CCCN2C(=O)CC[C@H](NC(=O)c3cccc(Cl)c3)C(=O)N12 [Compound 455] | 6.40 | 
60 | COCC(=O)N1C[C@H](NC(=O)c2cccc3ccccc23)C(=O)N(CC(=O)N[C@H](C=O)CC(=O)O)c2ccccc21 [Compound 2201, (3S)-3-[(3S)-2-oxo-3-(1-naphthoyl)amino-5-methoxyacetyl-2,3,4,5-tetrahydro-1H-1,5-benzodiazepine-1-acetylamino]4-oxo-butyric acid] | 5.70 | pIC50 [1, 4]: 5.43
45 | Cc1nc(C)c(C(=O)N[C@H]2CCC(=O)N3CCC[C@@H](C(=O)N[C@H](C=O)CC(=O)O)N3C2=O)s1 [Compound 423] | 5.68 | pIC50 [1, 4]: 5.74
187 | O=C(O)C[C@H](NC(=O)[C@@H]1CCCN2C(=O)CC[C@H](NC(=O)c3ccccc3)C(=O)N12)C(=O)CSc1nnnn1-c1ccccc1 [Compound 280, [3S(1S,9S)]3-(9-Benzoylamino-6,10-dioxo-1,2,3,4,7,8,9,10-octahydro-6H-pyridazino[1,2-a][1,2]diazepine-1-carboxamido)-4-oxo-5(1-phenyl-1H-tetrazole-5-thio)pentanoic acid] | 6.19 | 
 | Cc1cc(C(=O)N[C@H]2CCC(=O)N3CCC[C@@H](C(=O)N[C@H](C=O)CC(=O)O)N3C2=O)cc(C)c1O [Compound 214w] |  | pIC50 ([1]; Table 17): 6.21; Clearance Rat, i.v. ([2]; Table 17): 15 mL/min/kg
 | CS(=O)(=O)N[C@H]1CCC(=O)N2CCC[C@@H](C(=O)N[C@@H](CC(=O)O)C(=O)COC(=O)c3cccc4ccccc34)N2C1=O [Compound 286, [3S(1S,9S)]3-(6,10-Dioxo-9-methanesulphonylamino-1,2,3,4,7,8,9,10-octahydro-6H-pyridazino[1,2-a][1,2]diazepine-1-carboxamido)-5-(1-naphthoyloxy)-4-oxopentanoic acid] |  | pIC50 ([1]; Table 18): 6.52; Clearance Rat, i.v. ([2]; Table 18): 119 mL/min/kg
 | CC(=O)N1C[C@H](NC(=O)c2cc(Cl)c(O)c(Cl)c2)C(=O)N(CC(=O)N[C@H](C=O)CC(=O)O)c2ccccc21 [Compound 656, (3S)-3-[(3S)-2-Oxo-3-(3,5-dichloro, 4-hydroxybenzoyl)amino-5-acetyl-2,3,4,5-tetrahydro-1H-1,5-benzodiazepine-1-acetylamino-]4-oxo-butyric acid] |  | pIC50 ([1]; Homo sapiens, PBMC, Table 17): 5.68; clearance ([2]; Table 17): 2.9 mL/min/kg
23 | O=C[C@H](CC(=O)O)NC(=O)[C@@H]1CCCN2C(=O)CC[C@H](NC(=O)c3cccc4ccccc34)C(=O)N12 [Compound 408, [3S(1S,9S)]3-[6,10-Dioxo-9-(naphth-1-oylamino)-1,2,3,4,7,8,9,10-octahydro-6H-pyridazino[1,2-a][1,2]diazepine-1-carboxamido]-4-oxobutanoic acid] | 5.96 | 
 | O=C[C@H](CC(=O)O)NC(=O)CN1C(=O)[C@@H](NC(=O)c2cc(Cl)c(O)c(Cl)c2)CN(C(=O)CO)c2ccccc21 [Compound 662, (3S)-3-[(3S)-2-Oxo-3-(3,5-dichloro-4-hydroxybenzoyl)amino-5-(2-hydroxy)acetyl-2,3,4,5-tetrahydro-1H-1,5-benzodiazepine-1-acetylamino]-4-oxo-butyric acid] |  | pIC50 ([1]; Homo sapiens, PBMC, Table 17): 5.74; clearance ([2]; Table 17): 2.75 mL/min/kg
18 | O=C[C@H](CC(=O)O)NC(=O)[C@@H]1CCCN2C(=O)CC[C@H](NC(=O)c3ccc4c(c3)OCO4)C(=O)N12 [Compound 415, [3S(1S,9S)]3-[6,10-Dioxo-9-(3,4-methylenedioxybenzoylamino)-1,2,3,4,7,8,9,10-octahydro-6H-pyridazino[1,2-a][1,2]diazepine-1-carboxamido]-4-oxobutanoic acid] | 6.00 | pIC50 [1, 4]: 6.00
22 | COc1cc(C(=O)N[C@H]2CCC(=O)N3CCC[C@@H](C(=O)N[C@H](C=O)CC(=O)O)N3C2=O)cc(OC)c1OC [Compound 417, [3S(1S,9S)]3-[6,10-Dioxo-1,2,3,4,7,8,9,10-octahydro-9-(3,4,5-trimethoxybenzoylamino)-6H-pyridazino[1,2-a][1,2]diazepine-1-carboxamido]-4-oxobutanoic acid] | 5.70 | 
 | COC(=O)N[C@H]1CCC(=O)N2CCC[C@@H](C(=O)N[C@@H](CC(=O)O)C(=O)CSc3ncccn3)N2C1=O [Compound 511c, [3S(1S,9S)]3-[6,10-Dioxo-9-(methoxycarbonyl)-amino-1,2,3,4,7,8,9,10-octahydro-6H-pyridazino[1,2-a][1,2]diazepine-1-carboxamido]-5-(2-mercaptopyrimidine)-4-oxopentanoic acid] |  | pIC50 ([1]; Homo sapiens, PBMC, Table 17): < 4.70; clearance ([2]; Table 17): 40 mL/min/kg
 | O=C(O)C[C@H](NC(=O)[C@@H]1CCCN2C(=O)CC[C@H](NC(=O)CCc3ccccc3)C(=O)N12)C(=O)CSCc1ccccc1Cl [Compound 125b, [3S(1S,9S)]-3-(6,10-dioxo-1,2,3,4,7,8,9,10-octahydro)-9-(3-phenylpropionyl-amino)-6H-pyridazine[1,2-a][1,2]diazepine-1-carboxamido-5-(2-chlorophenyl-methylthio)-4-oxopentanoic acid] | 6.10 | 
 | CS(=O)(=O)N[C@H]1CCC(=O)N2CCC[C@@H](C(=O)N[C@@H](CC(=O)O)C(=O)COC(=O)c3sccc3Cl)N2C1=O [505 e, [3S(1S,9S)]5-(3-Chlorothien-2-oyloxy)-3-(6,10-dioxo-9-methanesulphonylamino-1,2,3,4,7,8,9,10-octahydro-6H-pyridazino[1,2-a][1,2]diazepine-1-carboxamido)-4-oxopentanoic acid] |  | pIC50 ([1]; Table 18): 5.05

Structure (SMILES) | clearance ([2]; 10-20 mg/kg) [mL/min/kg] | pIC50 [1, 3] | also measured
Cc1ccccc1C(=O)N[C@H]1CCC(=O)N2CCC[C@@H](C(=O)N[C@H](C=O)CC(=O)O)N2C1=O [Compound 404] | 24 | 5.78 | pIC50 [1, 4]: 5.74
CN(C)c1cccc(C(=O)N[C@H]2CCC(=O)N3CCC[C@@H](C(=O)N[C@H](C=O)CC(=O)O)N3C2=O)c1 [Compound 470] | 63 | 6.30 | 
O=C[C@H](CC(=O)O)NC(=O)[C@@H]1CCCN2C(=O)CC[C@H](NC(=O)c3ccc4nc[nH]c4c3)C(=O)N12 [Compound 434] | 20 | 5.80 | pIC50 [1, 4]: 5.92
O=C[C@H](CC(=O)O)NC(=O)[C@@H]1CCCN2C(=O)CC[C@H](NC(=O)c3cc4ccsc4s3)C(=O)N12 [Compound 442] | 54 | 6.05 | 
CC(C)CC(=O)Nc1ccc(C(=O)N[C@H]2CCC(=O)N3CCC[C@@H](C(=O)N[C@H](C=O)CC(=O)O)N3C2=O)cc1 [Compound 487, [3S(1S,9S)]3-{6,10-Dioxo-9-[4-(3-methylbutan-1-oylamino)benzamido]-1,2,3,4,7,8,9,10-octahydro-6H-pyridazino[1,2-a][1,2]diazepine-1-carboxamido}-4-oxobutanoic acid] | 20 | 6.19 | pIC50 [1, 4]: 6.02
O=C[C@H](CC(=O)O)NC(=O)[C@@H]1CCCN2C(=O)CC[C@H](NC(=O)c3ccccc3)C(=O)N12 [Compound 214e, [3S(1S,9S)]3-(9-Benzoylamino-6,10-dioxo-1,2,3,4,7,8,9,10-octahydro-6H-pyridazino[1,2-a][1,2]-diazepine-1-carboxamido)-4-oxobutanoic acid] | 12 | 5.80 | 
CN(C)c1ccc(C(=O)N[C@H]2CCC(=O)N3CCC[C@@H](C(=O)N[C@H](C=O)CC(=O)O)N3C2=O)cc1 [Compound 471] | 17 | 6.12 | 
